Assays:
HCT116 cells = experiment: In vitro cytotoxicity measured by the cell colony formation assay; assay type: cell-based; conditions: Homo sapiens, HCT-116; read-out: IN VITRO ID 50 (nm) HCT116
Procedure: In Vitro Cytotoxicity Measured by the Cell Colony Formation Assay
Four hundred cells (HCT116) were plated in 60 mm Petri dishes containing 2.7 mL of medium (modified McCoy's 5a medium containing 10% fetal bovine serum and 100 units/mL penicillin and 100 µg/mL streptomycin). The cells were incubated in a CO2 incubator at 37° C. for 5 h for attachment to the bottom of Petri dishes. The compounds identified in Example 2 were made up fresh in medium at ten times the final concentration, and then 0.3 mL of this stock solution was added to the 2.7 mL of medium in the dish. The cells were then incubated with drugs for 72 h at 37° C. At the end of incubation the drug-containing media were decanted, the dishes were rinsed with 4 mL of Hank's Balance Salt Solution (HBSS), 5 mL of fresh medium was added, and the dishes were returned to the incubator for colony formation. The cell colonies were counted using a colony counter after incubation for 7 days.

SMILES | melting point | IC50 (HCT116 cells)
CCNC(=O)O[C@H]1C(=O)[C@@]2(C)C([C@H](OC(=O)c3ccccc3)[C@]3(O)C[C@H](OC(=O)[C@H](O)[C@@H](NC(=O)OC(C)(C)C)c4cccs4)C(C)=C1C3(C)C)[C@]1(OC(C)=O)CO[C@@H]1C[C@@H]2O (some centres unmarked) (hydrate or solvate) [Compound 2722, 3′-Desphenyl-3′-(2-thienyl)-10-N-ethylcarbamoyl docetaxel] | 166 to 168 °C | –
CCNC(=O)O[C@H]1C(=O)[C@@]2(C)C([C@H](OC(=O)c3ccccc3)[C@]3(O)C[C@H](OC(=O)[C@H](O)[C@@H](NC(=O)OC(C)(C)C)c4cccs4)C(C)=C1C3(C)C)[C@]1(OC(C)=O)CO[C@@H]1C[C@@H]2O (some centres unmarked) [Compound 2722, 3′-Desphenyl-3′-(2-thienyl)-10-N-ethylcarbamoyl docetaxel] | – | < 1 nM
